The experiment deals with Syk (Homo sapiens, UniProt P43405). Kind of experiment: High throughput Syk assay (TR-FRET, KinEASE). The note with it: Syk TR-FRET assay of Example B2; 3 μM ATP, 0.5 nM Syk. Format: biochemical. On the procedure: The following high throughput Syk assay was performed on the compounds of Table 1 as follows.
Syk activity was measured by detecting phosphorylated peptide substrate formation using antibody against phosphorylated peptide substrate. This is a time-resolved fluorescence resonance energy transfer (TR-FRET) immunoassay, based on the KinEASE Assay (Cisbio). […] Test compounds (in DMSO) were spotted into 384 well plates using a Labcyte® Echo 550 Liquid Handling System prior to addition of Syk enzyme and peptide substrate. Reaction solutions were delivered using a Multi-Flo (Bio-Tek Instruments). The enzyme and peptide solution was incubated with compound for 60 minutes at room temp before the reaction was initiated by the addition of ATP. […] The europium donor was excited using a 340-nm excitation filter with a 30-nm band pass. Energy transfer to the tracer was measured using a filter centered at 665 nm with a 10 nm bandpass. This signal was then referenced to the emission from europium peak, using a 615 nm, 10-nm bandpass filter. The “emission ratio” was calculated as the 665 nm signal divided by the 615 nm signal. Percentage of inhibition was calculated as below:
% Inhibition=100×(RatioSample−Ratio0% Inhibition)/(Ratio100% Inhibition−Ratio0% Inhibition)
One may read the IC50 as the point on the concentration scale where inhibition reaches its midpoint. Higher therefore signals weaker potency. Take `COc1cc(Nc2nc(-c3ccc4c(c3)C(=O)NCCO4)cn3ccnc23)ccc1N1CCOCC1` [Compound 2, 7-(8-((3-methoxy-4-morpholinophenyl)amino)imidazo [1,2-a]pyrazin-6-yl)-3,4-dihydrobenzo[f][1,4]oxazepin-5(2H)-one]: half-maximal inhibition (IC50) was put at 6 nM.

`C[C@H](O)[C@H]1CN(c2ccc(Nc3nc(-c4cnc5c(c4)NCCO5)cn4ccnc34)cc2)CCO1` [Compound 5, (S)-1-((R)-4-(4-((6-(2,3-dihydro-1H-pyrido[2,3-b][1,4]oxazin-7-yl)imidazo[1,2-a]pyrazin-8-yl)amino)phenyl)morpholin-2-yl)ethanol]: the IC50 came to 6 nM.

For the compound `COc1cc(Nc2nc(-c3ccc4c(c3)OCCN4)cn3ccnc23)ccc1N1CCN(C2COC2)CC1` [Compound 6, 6-(3,4-dihydro-2H-benzo[b][1,4]oxazin-7-yl)-N-(3-methoxy-4-(4-(oxetan-3-yl)piperazin-1-yl)phenyl)imidazo[1,2-a]pyrazin-8-amine], the IC50 is 7 nM.

Compound `COc1cc(Nc2nc(-c3ccc4c(c3)NCCO4)cn3ccnc23)ccc1N1CC[C@@H](N)C1` [Compound 9, (R)-N-(4-(3-aminopyrrolidin-1-yl)-3-methoxyphenyl)-6-(3,4-dihydro-2H-benzo[b][1,4]oxazin-6-yl)imidazo[1,2-a]pyrazin-8-amine] yielded an IC50 of 6 nM.

`COc1cc(Nc2nc(-c3cnc4c(c3)NCCO4)cn3ccnc23)ccc1N1CCN(CC2(C)COC2)CC1` [Compound 28, 6-(2,3-dihydro-1H-pyrido[2,3-b][1,4]oxazin-7-yl)-N-(3-methoxy-4-(4-((3-methyloxetan-3-yl)methyl)piperazin-1-yl)phenyl)imidazo[1,2-a]pyrazin-8-amine]: the IC50 amounted to 4 nM.

Consider `COc1cc(Nc2nc(-c3cnc4c(c3)NCCO4)cn3ccnc23)ccc1OC1CCC1` [Compound 29, N-(4-cyclobutoxy-3-methoxyphenyl)-6-(2,3-dihydro-1H-pyrido[2,3-b][1,4]oxazin-7-yl)imidazo[1,2-a]pyrazin-8-amine], for which the IC50 was determined as 7 nM.

For `COc1cc(Nc2nc(-c3cnc4c(c3)NCCO4)cn3ccnc23)ccc1OC1COC1` [Compound 30, 6-(2,3-dihydro-1H-pyrido[2,3-b][1,4]oxazin-7-yl)-N-(3-methoxy-4-(oxetan-3-yloxy)phenyl)imidazo[1,2-a]pyrazin-8-amine], the IC50 is 2 nM.

For the compound `CC(=O)N1CCN(c2ccc(Nc3nc(-c4cnc5c(c4)NCCO5)cn4ccnc34)cc2)CC1` [Compound 34], the IC50 was determined as 4 nM.

The compound `COc1cc(Nc2nc(-c3cnc4c(c3)NCCO4)cn3ccnc23)ccc1N(C)C` [Compound 35, N4-(6-(2,3-dihydro-1H-pyrido[2,3-b][1,4]oxazin-7-yl)imidazo[1,2-a]pyrazin-8-yl)-2-methoxy-N1,N1-dimethylbenzene-1,4-diamine] registered an IC50 of 2 nM.

As to `CC(C)n1cc(Nc2nc(-c3cnc4c(c3)NCCO4)cn3ccnc23)cn1` [Compound 36, 6-(2,3-dihydro-1H-pyrido[2,3-b][1,4]oxazin-7-yl)-N-(1-isopropyl-1H-pyrazol-4-yl)imidazo[1,2-a]pyrazin-8-amine], the IC50 came out at 8 nM.

`c1cn2cc(-c3cnc4c(c3)NCCO4)nc(Nc3ccc(C4CCOCC4)cc3)c2n1` [Compound 39, 6-(2,3-dihydro-1H-pyrido[2,3-b][1,4]oxazin-7-yl)-N-(4-(tetrahydro-2H-pyran-4-yl)phenyl)imidazo[1,2-a]pyrazin-8-amine] gave an IC50 of 7 nM.

Turning to `COc1cc(Nc2nc(-c3cnc4c(c3)NCCO4)cn3ccnc23)ccc1-n1ccnc1` [Compound 40, N-(4-(1H-imidazol-1-yl)-3-methoxyphenyl)-6-(2,3-dihydro-1H-pyrido[2,3-b][1,4]oxazin-7-yl)imidazo[1,2-a]pyrazin-8-amine], the midpoint of inhibition, the IC50, lay at 21 nM.

`c1cn2cc(-c3cnc4c(c3)NCCO4)nc(Nc3ccc4c(c3)OC[C@H]3COCCN43)c2n1` [Compound 43, (R)-N-(6-(2,3-dihydro-1H-pyrido[2,3-b][1,4]oxazin-7-yl)imidazo[1,2-a]pyrazin-8-yl)-2,4,4a,5-tetrahydro-1H-benzo[b][1,4]oxazino[4,3-d][1,4]oxazin-8-amine]: the IC50 was 9 nM.

In turn, `c1cn2cc(-c3cnc4c(c3)NCCO4)nc(Nc3cnn(C4CCOCC4)c3)c2n1` [Compound 44, 6-(2,3-dihydro-1H-pyrido[2,3-b][1,4]oxazin-7-yl)-N-(1-(tetrahydro-2H-pyran-4-yl)-1H-pyrazol-4-yl)imidazo[1,2-a]pyrazin-8-amine] displayed an IC50 of 5 nM.

For the compound `COc1cc(Nc2nc(-c3cnc4c(c3)NCCO4)cn3ccnc23)ccc1N1CCC[C@](C)(O)C1` [Compound 52, (S)-1-(4-((6-(2,3-dihydro-1H-pyrido[2,3-b][1,4]oxazin-7-yl)imidazo[1,2-a]pyrazin-8-yl)amino)-2-methoxyphenyl)-3-methylpiperidin-3-ol], inhibition was half-maximal at 7 nM (IC50).

Take `CC(C)c1ncc(Nc2nc(-c3cnc4c(c3)NCCO4)cn3ccnc23)s1` [Compound 54, N-(6-(2,3-dihydro-1H-pyrido[2,3-b][1,4]oxazin-7-yl)imidazo[1,2-a]pyrazin-8-yl)-2-isopropylthiazol-5-amine]: half-maximal inhibition (IC50) required 4 nM.

`COc1cc(Nc2nc(-c3ccc4c(c3)C(=O)NCCO4)cn3ccnc23)ccc1N1CCN(C2COC2)CC1` [Compound 55, 7-(8-((3-methoxy-4-(4-(oxetan-3-yl)piperazin-1-yl)phenyl)amino)imidazo[1,2-a]pyrazin-6-yl)-3,4-dihydrobenzo[f][1,4]oxazepin-5(2H)-one] displayed an IC50 of 8 nM.

For the compound `COc1cc(Nc2nc(-c3cnc4c(c3)NCCS4)cn3ccnc23)ccc1N1CCOCC1` [Compound 58, 6-(2,3-dihydro-1H-pyrido[2,3-b][1,4]thiazin-7-yl)-N-(3-methoxy-4-morpholinophenyl)imidazo[1,2-a]pyrazin-8-amine], the IC50 worked out at 2 nM.

Turning to `COc1cc(Nc2nc(-c3cnc4c(c3)N(C)C(=O)CO4)cn3ccnc23)ccc1N1CCOCC1` [Compound 60, 7-(8-((3-methoxy-4-morpholinophenyl)amino)imidazo [1,2-a]pyrazin-6-yl)-1-methyl-1H-pyrido[2,3-b][1,4]oxazin-2(3H)-one], the IC50 worked out at 39 nM.

On to `CN(C)C[C@@H]1CN(c2ccc(Nc3nc(-c4cnc5c(c4)NCCO5)cn4ccnc34)cc2)CCO1` [Compound 61, (R)-6-(2,3-dihydro-1H-pyrido[2,3-b][1,4]oxazin-7-yl)-N-(4-(2-((dimethylamino)methyl)morpholino)phenyl)imidazo[1,2-a]pyrazin-8-amine], for which the IC50 is 9 nM.

`CC(C)N1CCN(c2ccc(Nc3nc(-c4cnc5c(c4)NCCO5)cn4ccnc34)cc2)CC1` [Compound 62, 6-(2,3-dihydro-1H-pyrido[2,3-b][1,4]oxazin-7-yl)-N-(4-(4-isopropylpiperazin-1-yl)phenyl)imidazo[1,2-a]pyrazin-8-amine] came in with an IC50 of 8 nM.

Regarding `c1cn2cc(-c3ccc4c(c3)CNCCO4)nc(Nc3ccc(N4CCOCC4)cc3)c2n1` [Compound 78, N-(4-morpholinophenyl)-6-(2,3,4,5-tetrahydrobenzo[f][1,4]oxazepin-7-yl)imidazo[1,2-a]pyrazin-8-amine], 18 nM corresponded to half-maximal inhibition (IC50).

On to `COc1cc(Nc2nc(-c3cnc4c(c3)NCCO4)cn3ccnc23)ccc1N1CCOC(C)(C)C1` [Compound 81, 6-(2,3-dihydro-1H-pyrido[2,3-b][1,4]oxazin-7-yl)-N-(4-(2,2-dimethylmorpholino)-3-methoxyphenyl)imidazo[1,2-a]pyrazin-8-amine], for which 14 nM corresponded to half-maximal inhibition (IC50).

Source of the values: patent publication US20130338142A1, “IMIDAZOPYRAZINE SYK INHIBITORS” (Gilead Connecticut, Inc., priority 2012, published 2013).
